Reference: ChEMBL document CHEMBL3400003, “Isoindoline-1,3-dione derivatives targeting cholinesterases: design, synthesis and biological evaluation of potential anti-Alzheimer's agents” (Bioorg Med Chem, 2015)

Columns and labels:
[1] = PAMPA
Cholinesterase = Cholinesterase (Equus caballus, UniProt P81908)
Acetylcholinesterase [2] = molecular target: Acetylcholinesterase (Electrophorus electricus, UniProt O42275)
Acetylcholinesterase [3] = molecular target: Acetylcholinesterase (Homo sapiens, UniProt P22303)
[4] = molecular target: Amyloid-beta precursor protein (Homo sapiens) (UniProt P05067); experiment: Inhibition of recombinant human HFIP-pretreated Amyloid beta (1 to 42) (unknown origin) self-induced aggregation at 10 uM after 24 hrs by thioflavin T-based fluorometric assay
[5] = molecular target: Cholinesterase (Equus caballus) (UniProt P81908); experiment: Inhibition of BuChE in horse serum at 10 uM pre-incubated for 5 mins before addition of butyrylthiocholine iodide substrate by Ellman's assay
Cholinesterase (Equus caballus), sequence (P81908 whole entry): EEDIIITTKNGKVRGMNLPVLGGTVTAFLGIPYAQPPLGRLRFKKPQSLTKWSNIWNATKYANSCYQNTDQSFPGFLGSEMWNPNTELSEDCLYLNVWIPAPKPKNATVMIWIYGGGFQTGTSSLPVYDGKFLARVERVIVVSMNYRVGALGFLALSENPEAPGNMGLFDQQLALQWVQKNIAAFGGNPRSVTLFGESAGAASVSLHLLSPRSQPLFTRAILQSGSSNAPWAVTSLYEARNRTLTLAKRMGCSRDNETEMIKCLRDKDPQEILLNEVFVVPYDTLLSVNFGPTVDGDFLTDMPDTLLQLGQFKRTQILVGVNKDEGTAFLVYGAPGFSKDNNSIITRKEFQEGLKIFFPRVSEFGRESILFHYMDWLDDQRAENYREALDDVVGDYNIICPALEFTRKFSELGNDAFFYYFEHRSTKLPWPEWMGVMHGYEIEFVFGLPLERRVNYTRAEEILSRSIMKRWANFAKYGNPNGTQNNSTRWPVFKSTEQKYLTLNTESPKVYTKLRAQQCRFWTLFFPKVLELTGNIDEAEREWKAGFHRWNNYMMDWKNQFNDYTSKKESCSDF

Acetylcholinesterase (Homo sapiens, UniProt P22303), sequence (P22303 whole entry): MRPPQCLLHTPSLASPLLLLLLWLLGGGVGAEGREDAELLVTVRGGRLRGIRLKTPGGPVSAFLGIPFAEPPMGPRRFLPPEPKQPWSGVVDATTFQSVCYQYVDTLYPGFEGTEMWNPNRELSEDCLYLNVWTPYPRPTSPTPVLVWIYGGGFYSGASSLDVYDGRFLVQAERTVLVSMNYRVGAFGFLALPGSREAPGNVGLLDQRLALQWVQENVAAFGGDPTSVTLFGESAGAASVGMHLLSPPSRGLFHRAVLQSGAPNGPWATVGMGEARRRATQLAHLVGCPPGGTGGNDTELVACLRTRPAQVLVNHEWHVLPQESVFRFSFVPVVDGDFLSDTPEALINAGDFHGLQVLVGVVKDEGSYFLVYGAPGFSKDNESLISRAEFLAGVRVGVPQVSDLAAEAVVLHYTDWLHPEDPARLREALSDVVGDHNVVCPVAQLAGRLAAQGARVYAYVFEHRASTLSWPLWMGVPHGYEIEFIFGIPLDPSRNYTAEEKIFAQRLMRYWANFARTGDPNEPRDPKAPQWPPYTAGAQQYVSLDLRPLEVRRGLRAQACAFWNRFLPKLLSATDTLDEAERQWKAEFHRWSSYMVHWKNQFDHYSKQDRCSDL
Acetylcholinesterase (Electrophorus electricus, UniProt O42275), sequence (O42275 whole entry): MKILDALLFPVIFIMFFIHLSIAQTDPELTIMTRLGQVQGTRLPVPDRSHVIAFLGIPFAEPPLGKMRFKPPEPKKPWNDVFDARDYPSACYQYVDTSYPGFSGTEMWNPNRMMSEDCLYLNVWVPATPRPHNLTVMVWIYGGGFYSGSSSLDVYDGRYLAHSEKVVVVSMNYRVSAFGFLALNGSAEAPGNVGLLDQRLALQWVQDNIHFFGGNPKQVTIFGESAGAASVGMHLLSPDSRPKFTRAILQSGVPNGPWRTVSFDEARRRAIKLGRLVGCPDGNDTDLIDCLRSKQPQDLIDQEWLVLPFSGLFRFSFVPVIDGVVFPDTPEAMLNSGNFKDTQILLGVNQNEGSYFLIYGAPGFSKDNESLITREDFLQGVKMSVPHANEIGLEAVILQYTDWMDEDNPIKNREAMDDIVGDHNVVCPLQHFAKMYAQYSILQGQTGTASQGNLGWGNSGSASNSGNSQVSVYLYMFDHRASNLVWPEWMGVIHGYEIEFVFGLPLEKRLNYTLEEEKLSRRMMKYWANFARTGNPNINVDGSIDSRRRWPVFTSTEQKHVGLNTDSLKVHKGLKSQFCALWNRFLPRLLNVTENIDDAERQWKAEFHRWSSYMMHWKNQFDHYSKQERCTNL
Amyloid-beta precursor protein (Homo sapiens), sequence (P05067 whole entry): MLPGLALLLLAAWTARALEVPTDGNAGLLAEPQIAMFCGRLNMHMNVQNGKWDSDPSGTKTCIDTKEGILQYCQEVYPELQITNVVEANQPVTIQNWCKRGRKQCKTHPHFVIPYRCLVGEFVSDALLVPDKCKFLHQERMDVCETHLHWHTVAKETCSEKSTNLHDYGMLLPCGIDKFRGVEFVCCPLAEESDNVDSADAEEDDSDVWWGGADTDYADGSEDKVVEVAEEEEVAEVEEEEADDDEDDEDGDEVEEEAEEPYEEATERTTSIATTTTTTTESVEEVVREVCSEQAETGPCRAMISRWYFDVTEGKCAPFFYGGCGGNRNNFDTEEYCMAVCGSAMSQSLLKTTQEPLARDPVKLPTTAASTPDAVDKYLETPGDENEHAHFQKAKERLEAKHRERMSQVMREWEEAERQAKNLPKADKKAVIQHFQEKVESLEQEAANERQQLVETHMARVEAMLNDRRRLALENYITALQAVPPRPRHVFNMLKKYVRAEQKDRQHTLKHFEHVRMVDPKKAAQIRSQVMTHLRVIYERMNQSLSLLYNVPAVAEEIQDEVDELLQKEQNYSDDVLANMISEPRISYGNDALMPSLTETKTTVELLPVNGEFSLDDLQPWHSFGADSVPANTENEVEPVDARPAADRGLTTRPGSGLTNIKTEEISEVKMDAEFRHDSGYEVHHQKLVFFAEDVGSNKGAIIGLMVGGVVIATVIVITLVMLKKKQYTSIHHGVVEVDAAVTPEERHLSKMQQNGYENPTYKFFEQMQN
Cholinesterase, sequence (P81908 whole entry): as the sequence (P81908 whole entry) above

For CC(=O)[C@H]1CC[C@H]2[C@@H]3CCC4=CC(=O)CC[C@]4(C)[C@H]3CC[C@]12C [PROGESTERONE], the “log Pe” value [1] was -5.1.

CN(CCCCCCCN1C(=O)c2ccccc2C1=O)Cc1ccccc1 showed an IC50 (Cholinesterase) of 1010 nM, an IC50 (Acetylcholinesterase [2]) of 172 nM and an IC50 (Acetylcholinesterase [3]) of 997 nM. For the same compound, the inhibition [4] was < 5%.

Work on CN(CCCCCCCN1C(=O)c2ccccc2C1=O)Cc1cccc(Cl)c1 yielded an IC50 (Cholinesterase) of 1500 nM, an IC50 (Acetylcholinesterase [2]) of 500 nM and an IC50 (Acetylcholinesterase [3]) of 1300 nM. For the same compound, the inhibition [4] was < 5%.

Work on CN(CCCCCCCCN1C(=O)c2ccccc2C1=O)Cc1ccccc1 yielded an IC50 (Cholinesterase) of 543 nM, an IC50 (Acetylcholinesterase [2]) of 139 nM and an IC50 (Acetylcholinesterase [3]) of 860 nM. The inhibition [4] was < 5%.

With O=C1c2ccccc2C(=O)N1Cc1ccc(CNCc2ccccc2F)cc1 the IC50 (Cholinesterase) was 2900 nM, the IC50 (Acetylcholinesterase [2]) was 2580 nM and the inhibition [4] was < 5%.

For O=C1c2ccccc2C(=O)N1Cc1ccc(CNCc2ccccc2)cc1, the IC50 (Cholinesterase) was 2080 nM and the inhibition [4] was < 5%.

For CN(CCCCCN1C(=O)c2ccccc2C1=O)Cc1ccccc1F, the IC50 (Acetylcholinesterase [2]) was 67 nM, the inhibition [5] was < 50% and the IC50 (Acetylcholinesterase [3]) was 525 nM. The inhibition [4] was < 5%.

For CN(CCCCCCN1C(=O)c2ccccc2C1=O)Cc1ccccc1, the IC50 (Acetylcholinesterase [2]) was 89 nM, the inhibition [5] was < 50% and the IC50 (Acetylcholinesterase [3]) was 1830 nM. For the same compound, the inhibition [4] was < 5%.

For CN(CCCCN1C(=O)c2ccccc2C1=O)Cc1ccccc1, the IC50 (Acetylcholinesterase [2]) was 2330 nM, the inhibition [5] was < 50% and the inhibition [4] was < 5%.

CN(CCCCCCN1C(=O)c2ccccc2C1=O)Cc1ccccc1F showed an IC50 (Cholinesterase) of 10500 nM, an IC50 (Acetylcholinesterase [2]) of 75 nM and an IC50 (Acetylcholinesterase [3]) of 1990 nM. For the same compound, the inhibition [4] was < 5%.

With CN(CCCCCCCCN1C(=O)c2ccccc2C1=O)Cc1cccc(Cl)c1 the IC50 (Cholinesterase) was 909 nM, the IC50 (Acetylcholinesterase [2]) was 1360 nM and the IC50 (Acetylcholinesterase [3]) was 1040 nM. The inhibition [4] was < 5%.

In the case of CN(CCCCCCN1C(=O)c2ccccc2C1=O)Cc1cccc(Cl)c1, the IC50 (Cholinesterase) is reported as 2440 nM, the IC50 (Acetylcholinesterase [2]) is reported as 95 nM and the IC50 (Acetylcholinesterase [3]) is reported as 1190 nM. The inhibition [4] was < 5%.

In the case of CN(CCCCN1C(=O)c2ccccc2C1=O)Cc1cccc(Cl)c1, the IC50 (Acetylcholinesterase [2]) is reported as 1430 nM, the inhibition [5] is reported as < 50% and the inhibition [4] is reported as < 5%.

In the case of O=C1c2ccccc2C(=O)N1Cc1ccc(CNCc2cccc(Cl)c2)cc1, the IC50 (Cholinesterase) is reported as 1320 nM, the IC50 (Acetylcholinesterase [2]) is reported as 6310 nM and the inhibition [4] is reported as < 5%.

For CN(CCCCCN1C(=O)c2ccccc2C1=O)Cc1ccccc1, the IC50 (Acetylcholinesterase [2]) was 80 nM, the inhibition [5] was < 50% and the IC50 (Acetylcholinesterase [3]) was 361 nM. For the same compound, the inhibition [4] was < 5%.

Work on CN(CCCCCCCCN1C(=O)c2ccccc2C1=O)Cc1ccccc1F yielded an IC50 (Cholinesterase) of 4680 nM, an IC50 (Acetylcholinesterase [2]) of 661 nM and an IC50 (Acetylcholinesterase [3]) of 644 nM. For the same compound, the inhibition [4] was < 5%.

For CN(CCCCN1C(=O)c2ccccc2C1=O)Cc1ccccc1F, the IC50 (Acetylcholinesterase [2]) was 1520 nM, the inhibition [5] was < 50% and the inhibition [4] was < 5%.

Compound CN(CCCCCN1C(=O)c2ccccc2C1=O)Cc1cccc(Cl)c1 has an IC50 (Cholinesterase) of 5830 nM, an IC50 (Acetylcholinesterase [2]) of 110 nM and an IC50 (Acetylcholinesterase [3]) of 537 nM. For the same compound, the inhibition [4] was < 5%.

Work on CN(CCCCCCCN1C(=O)c2ccccc2C1=O)Cc1ccccc1F yielded an IC50 (Cholinesterase) of 7160 nM, an IC50 (Acetylcholinesterase [2]) of 525 nM and an IC50 (Acetylcholinesterase [3]) of 625 nM. For the same compound, the inhibition [4] was < 5%.
